How the values were obtained:
[1] = molecular target: T1, geranyl diphosphate C-methyltransferase (GPPMT) (Streptomyces coelicolor, UniProt Q9F1Y5); experiment: X-ray crystal structure, […] Å; assay type: binding; details: with SAH and Mg2+; monomers A, D, H, J only, partial occupancy
[2] = molecular target: T1, geranyl diphosphate C-methyltransferase (GPPMT); experiment: radiometric methyl transfer, pentane extraction, scintillation counting; assay type: biochemical; details: 10 mM MgCl2, pH 7.0, 30 °C
[3] = molecular target: T1, geranyl diphosphate C-methyltransferase (GPPMT); experiment: X-ray crystal structure, […] Å; assay type: binding; details: with SAH and Mg2+; isoprenoid substrate site

T1 sequence (Q9F1Y5 whole entry): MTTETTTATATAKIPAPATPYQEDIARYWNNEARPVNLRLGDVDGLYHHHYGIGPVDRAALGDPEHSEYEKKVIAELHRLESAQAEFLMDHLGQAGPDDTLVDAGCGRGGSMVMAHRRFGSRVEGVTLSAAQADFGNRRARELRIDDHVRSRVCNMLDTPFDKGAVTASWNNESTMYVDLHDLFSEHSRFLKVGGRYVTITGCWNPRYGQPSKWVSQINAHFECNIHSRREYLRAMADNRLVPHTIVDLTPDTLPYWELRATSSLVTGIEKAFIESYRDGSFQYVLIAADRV

With CC(C)=CCC/C(C)=C/COP(=O)(O)OP(=O)(O)O [GPP, geranyl diphosphate] the “X-ray crystal structure, 2.05 Å” value [1] was “sufficient electron density to model GPP is observed only in monomers A, D, H, and J” and the KM ([2]; 60 µM SAM) was “Kinetic parameters (Vmax and KM) were obtained for GPP and SAM”.
With CC(C)=CCC/C(C)=C/CSP(=O)(O)OP(=O)(O)O [GSPP, geranyl-S-thiolodiphosphate] the “X-ray crystal structure, 1.82 Å” value [3] was “GSPP is bound with full occupancy in all monomers”.
C[S+](CC[C@H](N)C(=O)O)C[C@H]1O[C@@H](n2cnc3c(N)ncnc32)[C@H](O)[C@@H]1O (stereo partly drawn) [SAM, S-adenosyl-L-methionine] was tested, and the KM ([2]; 60 µM GPP, labelled compound) was “Kinetic parameters (Vmax and KM) were obtained for GPP and SAM”.

— publication PMC3323675 (Biochemistry, 2012)
